Measurements as given in US10648979B2, “Molecular probes for detecting gram-negative bacteria in vitro and in vivo” (priority 2014, dated 2020).
Bridge positions count the residues as written; N and C are the ends. Square brackets hold non-standard residues; d marks the D form. Peptide text beside a SMILES is read from it. * marks the point of attachment. ξ: configuration not given here. NBD = O=[N+]([O-])c1ccc(*)c2nonc12; dDab = NCC[C@@H](N)C(=O)O; Dab = NCC[C@H](N)C(=O)O; AEEA = NCCOCCOCC(=O)O; ξDab = NCCC(N)C(=O)O

Experiments:
[1] = tested on: panel of bacteria (Gram-negative and Gram-positive); experiment: Flow cytometry of bacterial labelling; type: cell-based
Protocol: FIG. 7: NBD-UBIdend labels bacteria selectively over mammalian cells in vitro: A) Example images of a clinically relevant bacterial panel with NBD-UBIdend (5 μM; green) counterstained with the fluorescent generic cellular DNA dye Syto-82 (red) imaged by laser scanning confocal microscopy. B) Quantification of bacterial panel labelling NBD-UBIdend 5 μM (optimal concentration) where every bacteria in the panel is brighter when compared with MSSA and NBD-UBINle 10 μM (optimal concentration) C) Flow cytometry data with unstained bacteria (red), NBD-UBINle 15 μM (blue) and NBD-UBIdend 5 μM labelled bacteria (orange). […] Representative images shown, n≥3 for all experiments.
FIG. 8: NBD-PMX selectively labels Gram-negative bacteria in vitro. Example images of the bacterial panel with NBD-PMX imaged by laser scanning confocal microscopy. A) Bacterial panel with NBD-PMX 1 μM (green) and counterstain with syto-82 (red). […] C) Flow cytometric evaluation of bacterial labelling with NBD-PMX showing unstained bacteria (red) and NBD-PMX (blue) labelled bacteria. […] Representative images shown, n≥3 for all experiments.
Bacteria were prepared and counterstained with Syto 82 nucleic acid stain (Invitrogen, Calif., USA) in a shaking heat block at 37° C. and 350 rpm for 20 minutes. […] This was diluted to 500 uL and analysed using BD FACS Calibur using FL-1 and FL-2 channels, with 10,000 events. […]

[2] = tested on: bacteria instilled into ovine lung segments; experiment: Ex vivo ovine lung model of bacterial infection, in situ labelling imaged by FCFM
Protocol: FIG. 9: Ex vivo model of bacterial infection. A) Ovine lungs were harvested, ventilated and placed in a neonatal incubator with ambient temperature of 37° C. Pulmonary segments were instilled with PBS (control) or bacteria via bronchoscopy. Probes were then instilled and segments imaged with fibered confocal fluorescence microscopy (FCFM) using 488 nm Laser Scanning Unit (LSU). […] Bacteria (MSSA) instilled into segments of ovine lung and lavaged at 1, 3 and 5 hours (n=3), plated for CFU/ml and counted following 16 hour incubation.
NBD-UBIdend and NBD-PMX were assessed for in situ specificity and sensitivity in an ex vivo ovine model of bacterial infection (FIG. 9). […] We observed identical patterns with Calcein-labelled bacteria and Green Fluorescent Protein-expressing S. aureus which were instilled into the lung and imaged with FCFM (FIG. 10A). This pattern is reproduced identically by instilling bacteria “pre-labelled” with NBD-UBIdend and NBD-PMX into lung segments.
Following this thorough characterisation of the model and positive controls, we instilled PBS or VAP-relevant bacteria into distinct segments within the ex vivo lung model, followed by the microdosed delivery of the probes.
All compounds have undergone biological assessment.
Bacteria were grown to midlog phase in 400 ml TSB, pelleted by centrifugation and resuspended in 2 ml PBS. This was mixed with 18 ml molten tryptic-soy agar (50° C.) and injected rapidly into vortexing mineral oil +0.01% Span 80, pre-warmed to 50° C. This was then rapidly cooled to 4° C. whilst continuing to vortex to allow the beads to set. Bacterial agar beads were pelleted by centrifugation (20 minutes, 3000 g) and washed in 0.5% sodium deoxycholate (SDC) in PBS (20 minutes, 3000 g), followed by 0.25% SDC (20 minutes, 3000 g) in PBS, washed in PBS (10 minutes, 3000 g) and 3×PBS (5 minutes, 200 g). Beads were resuspended at 50% v/v in PBS for instillation.
From a cohort of surplus stock ewes which were destined for cull, one ewe was identified and terminally euthanized with an overdose of anaesthetic. Death was confirmed and the trachea was identified and clamped in situ. The thoracic cavity was then accessed and the lungs were freed from surrounding tissues and organs and the heart/lung was removed en block. The right pulmonary artery was identified, cannulated and perfused with 1000 ml 0.9% NaCl. Once filling of the left ventricle was confirmed an incision was made to allow free drainage and perfusion continued until the drainage from the left atrium was clear. The lungs were then transferred to the Queen's Medical Research Institute and the trachea was intubated with an 8.0 endotracheal tube immediately following clamp release. […]

[3] = tested on: pre-labelled bacteria in ovine lung; experiment: Pre-labelled bacteria instilled into the ovine lung and imaged by FCFM
Text: FIG. 14: NBD-UBIdend and NBD-PMX are resistant to ‘wash off’ allowing detection of bacteria in the ovine lung. […] However, when bacteria pre-labelled with linear NBD-UBINle are instilled, no punctate signal is seen. Labelling was confirmed by imaging bacterial suspensions (left hand panels) before instillation into the lung and imaging by FCFM (right hand panels). Note the lower SNR for NBD-UBINle labelled bacteria in suspension. Representative images shown, n=3 for each experiment.
(§1) In the distal lung, there is likely to be significant and rapid dissipation of the probes immediately after delivery. Therefore, it is imperative that probe-bacterial labelling remains persistent under these conditions. […] As such, this resistance to ‘wash-off’ represents a surrogate indicator of probe-bacterial affinity which appears to be an absolute requirement for distal lung in situ labelling.
We have obtained evidence that the wash-off properties of the probes, most likely related to affinity and/or the nature of subsequent insertion into the bacterial membrane, impact on whether or not they can be used to successfully image in the lung. The retention of labelling upon removal of probe solution was investigated in vitro by confocal. With all of the linear UBI variants labelling was lost completely upon wash-off. […]

bacterial panel = experiment: Retention of labelling upon wash-off (PBS wash) in vitro by confocal; type: cell-based
Text: FIG. 15: NBD-UBIdend retains fluorescence when wash performed. A) The bacterial panel was imaged by laser scanning confocal microscopy in the continued presence of NBD-UBIdend (black) and following PBS wash (white).
as §1
We have obtained evidence that the wash-off properties of the probes, most likely related to affinity and/or the nature of subsequent insertion into the bacterial membrane, impact on whether or not they can be used to successfully image in the lung. The retention of labelling upon removal of probe solution was investigated in vitro by confocal. With all of the linear UBI variants labelling was lost completely upon wash-off. […] Bacteria were pre-labelled with these linear NBD-UBINle compounds and successful labelling was confirmed by imaging the bacterial suspension pre-instillation.

[4] = tested on: bacteria over lung surfactant constituents; experiment: Bacterial labelling in the presence of lung surfactant constituents (confocal); type: cell-based
Protocol: Ratio of bacterial fluorescence intensity:surfactant fluorescent intensity quantified from confocal microscopy images.
In vitro experiments were conducted using lung surfactant constituents to investigate the ability of probes to preferentially detect bacteria in the presence of large amounts of surfactant. […] A suspension of surfactant constituents in buffered saline was prepared (20 mg/ml, 65% dipalmitoylphosphatidylcholine, 30% phosphatidylglycerol, 5% palmitic acid with 1 mg/ml tyloxapol as a spreading agent) and incubated with and without A549 epithelial cell monolayer.
Surfactant 5 μg 1,2-Dipalmitoyl-sn-glycero-3-phosphocholine (DPPC) and 2.5 μg L-α-Phosphatidyl-DL-glycerol sodium salt (from egg yolk lecithin; PG) were dissolved in 500 μl chloroform and evaporated under nitrogen to a thin lipid film in a round bottom flask. The lipid film was rehydrated with PBS at 48° C. for 1 hour with agitation (750 rpm) to generate multilammelar vesicles (MLV). These were diluted 1:4 for use in confocal experiments.

[5] = room temperature
human erythrocytes = experiment: Haemolysis assay; details: up to 100 μM; 0.2% Triton-X = 100%
Protocol: Positive control was 0.2% Triton-X and values corrected to represent 100% haemolysis for Triton-X.
Erythrocytes were isolated from freshly drawn, anticoagulated human blood and resuspended to 20 vol % in PBS (pH 7.4). In a 96-well microtiter plate, 100 μl of erythrocyte suspension was added to 100 μl of NLLP solution in PBS (prepared by 1:2 serial dilutions) or 100 μl of PBS in the case of negative controls. One-hundred percent haemolysis wells contained 100 μl of red cell suspension with 100 μl of 0.2 vol % Triton X-100. The plate was incubated for 1 h at 37° C., and then each well was diluted with 150 μl of PBS. The plate was then centrifuged at 1,200 g for 15 min, 100 μl of the supernatant from each well was transferred to a fresh microtiter plate, and A350 was measured. Percentage of haemolysis was determined as (A−A0)/(Atotal−A0)×100, where A is the absorbance of the test well, A0 the absorbance of the negative controls, and Atotal the absorbance of 100% haemolysis wells, all at 350 nm on a Biotek plate reader.

## CC(C)C[C@@H]1NC(=O)[C@@H](Cc2ccccc2)NC(=O)[C@@H](CCN)NC(=O)C(NC(=O)[C@H](CCN)NC(=O)[C@@H](NC(=O)COCCOCCNc2ccc([N+](=O)[O-])c3nonc23)[C@@H](C)O)CCNC(=O)[C@@H]([C@H](C)O)NC(=O)[C@H](CCN)NC(=O)[C@H](CCN)NC1=O (some centres unmarked) [NBD-PMX] ({NBD-AEEA}-T[Dab][ξDab][dDab][dF]L[Dab][Dab][dT]; lactam 3-C)
[1]
  labelling of Gram-positive bacteria by flow cytometry: No significant labelling of Gram-positive bacteria
[2]; FCFM
  detection of bacteria-coated agarose beads in situ: when beads are coated with bacteria a signal is seen
  in situ labelling of bacteria in segments instilled with bacteria: demonstrated labelling
[2]; MSSA, MRSA, S. pneumoniae
  signal in segments with PBS or gram-positive bacteria: no signal in segments with PBS or gram-positive bacteria
[2]; P. aeruginosa (PA01, J3284), K. pneumoniae, E. coli
  signal in segments instilled with gram-negative bacteria: the same signal as in the ‘positive controls’
[3]
  detection of pre-labelled bacteria after instillation: readily visualised
Bacterial panel
  retention of labelling upon wash-off: resistant to wash-off
[4]
  selectivity for bacterial labelling over lung surfactant constituents: possess selectivity for bacterial labelling over lung surfactant constituents
[4]; equimolar NBD concentrations
  bacterial:surfactant fluorescence intensity compared with linear NBD-UBINle: significantly higher bacterial: surfactant intensity than NBD-UBInle
[5]
  Stability: > 1 week
Human erythrocytes
  red cell haemolysis: no red cell haemolysis
